The target of the experiment is T1, 1-phosphatidylinositol 4,5-bisphosphate phosphodiesterase gamma-1 (Homo sapiens, UniProt P19174).
T1 sequence (P19174 whole entry): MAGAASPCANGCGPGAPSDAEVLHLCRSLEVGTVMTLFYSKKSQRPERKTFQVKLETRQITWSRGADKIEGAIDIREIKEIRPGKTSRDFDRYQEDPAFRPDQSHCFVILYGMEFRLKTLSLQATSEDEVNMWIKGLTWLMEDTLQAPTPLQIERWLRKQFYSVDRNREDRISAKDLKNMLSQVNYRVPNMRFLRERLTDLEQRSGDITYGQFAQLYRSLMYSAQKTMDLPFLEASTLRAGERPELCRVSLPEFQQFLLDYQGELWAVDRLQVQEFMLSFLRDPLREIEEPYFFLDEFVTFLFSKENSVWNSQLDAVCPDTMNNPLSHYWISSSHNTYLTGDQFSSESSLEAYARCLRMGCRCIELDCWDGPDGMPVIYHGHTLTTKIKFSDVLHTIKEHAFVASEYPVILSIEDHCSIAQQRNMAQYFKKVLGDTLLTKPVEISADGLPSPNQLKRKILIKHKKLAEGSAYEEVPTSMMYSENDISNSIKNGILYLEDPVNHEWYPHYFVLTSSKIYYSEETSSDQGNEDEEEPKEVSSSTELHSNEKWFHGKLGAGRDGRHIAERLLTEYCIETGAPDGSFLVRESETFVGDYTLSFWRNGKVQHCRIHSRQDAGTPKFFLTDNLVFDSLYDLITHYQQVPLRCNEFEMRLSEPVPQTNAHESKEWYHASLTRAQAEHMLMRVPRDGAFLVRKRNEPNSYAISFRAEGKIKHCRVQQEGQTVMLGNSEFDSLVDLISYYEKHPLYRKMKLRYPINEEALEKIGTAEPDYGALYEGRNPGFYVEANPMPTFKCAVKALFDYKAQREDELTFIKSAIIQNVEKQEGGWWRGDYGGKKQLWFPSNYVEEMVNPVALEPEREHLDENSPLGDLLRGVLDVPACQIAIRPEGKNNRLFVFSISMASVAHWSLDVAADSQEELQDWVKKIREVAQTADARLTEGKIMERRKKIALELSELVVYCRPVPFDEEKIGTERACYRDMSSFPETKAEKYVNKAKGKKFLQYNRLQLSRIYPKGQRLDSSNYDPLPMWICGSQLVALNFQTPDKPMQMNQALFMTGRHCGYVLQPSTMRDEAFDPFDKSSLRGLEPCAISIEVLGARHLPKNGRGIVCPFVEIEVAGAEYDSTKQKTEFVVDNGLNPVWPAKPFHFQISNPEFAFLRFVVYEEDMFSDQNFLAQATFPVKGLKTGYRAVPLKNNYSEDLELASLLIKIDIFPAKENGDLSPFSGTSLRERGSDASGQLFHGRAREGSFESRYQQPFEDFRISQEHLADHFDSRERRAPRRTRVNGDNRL
Nature of the experiment: Counterscreen for inhibitors of phospholipase C isozymes (PLC-B3): Fluorescence-based biochemical high throughput dose response assay to identify inhibitors of phospholipase C isozymes (PLC-gamma1).

Active and inactive are the calls of the source. Rule as the data show it: active = IC50 of 10 µM or less and inactive = more.

The IC50 is the concentration at which inhibition is half-maximal. As for `Oc1ccc(/C=N/NC(=S)Nc2cccnc2)c(O)c1O`, the IC50 is > 122 µM (inactive).

The record behind these values is ChEMBL document CHEMBL1201862, “PubChem BioAssay data set” (2004).
